Data taken from US7576091B2, “Thiazolo-, oxazalo and imidazolo-quinazoline compounds capable of inhibiting protein kinases” (Cyclacel Limited, priority 2003, dated 2009).

biological target: Cyclin B - CDK1 (Homo sapiens, UniProt P06493); test: Cyclin B - CDK1 kinase inhibition assay; type: biochemical; details: [ATP] = 100 μM
Protocol: (§1) Compounds were tested in cyclin-CDK kinase assays and cytotoxicity assays against human tumour cell lines (72-h MTT assay) as previously described.

Cyclin B - CDK1, sequence (P06493 whole entry): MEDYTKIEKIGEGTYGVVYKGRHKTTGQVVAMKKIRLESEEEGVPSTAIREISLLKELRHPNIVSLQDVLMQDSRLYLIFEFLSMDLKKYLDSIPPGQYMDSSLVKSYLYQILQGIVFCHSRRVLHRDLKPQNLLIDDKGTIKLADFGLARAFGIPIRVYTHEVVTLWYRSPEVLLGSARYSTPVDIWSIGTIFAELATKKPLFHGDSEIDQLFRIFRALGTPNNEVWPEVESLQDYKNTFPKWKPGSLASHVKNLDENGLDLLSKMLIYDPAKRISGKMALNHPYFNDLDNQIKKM
Cyclin B - CDK1, sequence (P14635 whole entry partner): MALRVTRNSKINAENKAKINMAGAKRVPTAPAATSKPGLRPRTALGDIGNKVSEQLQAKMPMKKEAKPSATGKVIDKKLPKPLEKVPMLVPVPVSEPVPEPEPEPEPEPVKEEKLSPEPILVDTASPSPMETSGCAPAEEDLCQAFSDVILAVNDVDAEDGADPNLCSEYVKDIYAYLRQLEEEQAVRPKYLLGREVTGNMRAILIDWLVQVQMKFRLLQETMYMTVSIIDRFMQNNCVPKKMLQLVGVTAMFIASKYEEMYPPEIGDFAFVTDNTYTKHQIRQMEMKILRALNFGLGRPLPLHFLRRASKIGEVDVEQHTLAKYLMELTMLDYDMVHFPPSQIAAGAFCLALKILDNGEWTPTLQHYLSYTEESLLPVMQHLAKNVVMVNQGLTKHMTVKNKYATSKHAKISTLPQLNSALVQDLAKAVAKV

Point of comparison: `Cc1nc2c(s1)-c1nc(Nc3ccc(N(C)C)cc3)ncc1CC2` [Cpd 6, N,N-Dimethyl-N′-(2-methyl-4,5-dihydro-thiazolo[4,5-h]quinazolin-8-yl)-benzene-1,4-diamine], IC50 7500 ± 6300 nM. Against it:
- Cc1nc2c(s1)-c1nc(N(C)c3cccc([N+](=O)[O-])c3)ncc1CC2 [Cpd 9, Methyl-(2-methyl-4,5-dihydro-thiazolo[4,5-h]quinazolin-8-yl)-(3-nitro-phenyl)-amine] — within error, 8000 ± 2000 nM
- Cc1nc2c(s1)-c1nc(Nc3ccc(C(F)(F)F)cc3)ncc1CC2 [Cpd 2, (2-Methyl-4,5-dihydro-thiazolo[4,5-h]quinazolin-8-yl)-(4-trifluoromethyl-phenyl)-amine] — within error, 2800 ± 700 nM
- Cc1nc2c(s1)-c1nc(Nc3cccc([N+](=O)[O-])c3)ncc1CC2 [Cpd 1, (2-Methyl-4,5-dihydro-thiazolo[4,5-h]quinazolin-8-yl)-(3-nitro-phenyl)-amine] — within error, 1000 ± 200 nM
- Cc1nc2c(s1)-c1nc(Nc3ccccc3)ncc1CC2 [Cpd 11, (2-Methyl-4,5-dihydro-thiazolo[4,5-h]quinazolin-8-yl)-phenyl-amine] — within error, 2200 ± 700 nM
- Nc1nc2c(s1)-c1nc(Nc3ccccc3)ncc1CC2 [Cpd 13, N^8-Phenyl-4,5-dihydro-thiazolo[4,5-h]quinazoline-2,8-diamine] — within error, 1900 ± 700 nM
- Cc1nc2ccc3cnc(N(C)c4cccc([N+](=O)[O-])c4)nc3c2s1 [Cpd 10, Methyl-(2-methyl-thiazolo[4,5-h]quinazolin-8-yl)-(3-nitro-phenyl)-amine] — 2.9-fold higher, 22000 ± 8000 nM

biological target: Cyclin A - CDK2 (Homo sapiens, UniProt P24941); test: Cyclin A - CDK2 kinase inhibition assay; type: biochemical; details: [ATP] = 100 μM
Protocol: as §1

Point of comparison: `Nc1nc2c(s1)-c1nc(Nc3ccccc3)ncc1CC2` [Cpd 13, N^8-Phenyl-4,5-dihydro-thiazolo[4,5-h]quinazoline-2,8-diamine], IC50 920 ± 470 nM. Against it:
- Cc1nc2c(s1)-c1nc(N(C)c3cccc([N+](=O)[O-])c3)ncc1CC2 [Cpd 9, Methyl-(2-methyl-4,5-dihydro-thiazolo[4,5-h]quinazolin-8-yl)-(3-nitro-phenyl)-amine] — 15-fold higher, 14000 ± 6000 nM
- Cc1nc2c(s1)-c1nc(Nc3ccc(N(C)C)cc3)ncc1CC2 [Cpd 6, N,N-Dimethyl-N′-(2-methyl-4,5-dihydro-thiazolo[4,5-h]quinazolin-8-yl)-benzene-1,4-diamine] — 16-fold lower, 58 ± 7 nM
- Cc1nc2c(s1)-c1nc(Nc3ccc(C(F)(F)F)cc3)ncc1CC2 [Cpd 2, (2-Methyl-4,5-dihydro-thiazolo[4,5-h]quinazolin-8-yl)-(4-trifluoromethyl-phenyl)-amine] — 4.6-fold higher, 4200 ± 900 nM
- Cc1nc2c(s1)-c1nc(Nc3cccc([N+](=O)[O-])c3)ncc1CC2 [Cpd 1, (2-Methyl-4,5-dihydro-thiazolo[4,5-h]quinazolin-8-yl)-(3-nitro-phenyl)-amine] — within error, 560 ± 40 nM
- Cc1nc2c(s1)-c1nc(Nc3ccccc3)ncc1CC2 [Cpd 11, (2-Methyl-4,5-dihydro-thiazolo[4,5-h]quinazolin-8-yl)-phenyl-amine] — 1.8-fold higher, 1700 nM
- Cc1nc2ccc3cnc(N(C)c4cccc([N+](=O)[O-])c4)nc3c2s1 [Cpd 10, Methyl-(2-methyl-thiazolo[4,5-h]quinazolin-8-yl)-(3-nitro-phenyl)-amine] — 51-fold higher, 47000 ± 20000 nM

biological target: Cyclin E - CDK2 (Homo sapiens, UniProt P24941); test: Cyclin E - CDK2 kinase inhibition assay; type: biochemical; details: [ATP] = 100 μM
Protocol: as §1

Point of comparison: `Cc1nc2c(s1)-c1nc(N(C)c3cccc([N+](=O)[O-])c3)ncc1CC2` [Cpd 9, Methyl-(2-methyl-4,5-dihydro-thiazolo[4,5-h]quinazolin-8-yl)-(3-nitro-phenyl)-amine], IC50 1180 ± 30 nM. Against it:
- Cc1nc2c(s1)-c1nc(Nc3ccc(N(C)C)cc3)ncc1CC2 [Cpd 6, N,N-Dimethyl-N′-(2-methyl-4,5-dihydro-thiazolo[4,5-h]quinazolin-8-yl)-benzene-1,4-diamine] — 56-fold lower, 21 ± 1 nM
- Cc1nc2c(s1)-c1nc(Nc3ccc(C(F)(F)F)cc3)ncc1CC2 [Cpd 2, (2-Methyl-4,5-dihydro-thiazolo[4,5-h]quinazolin-8-yl)-(4-trifluoromethyl-phenyl)-amine] — 3-fold lower, 400 ± 100 nM
- Cc1nc2c(s1)-c1nc(Nc3cccc([N+](=O)[O-])c3)ncc1CC2 [Cpd 1, (2-Methyl-4,5-dihydro-thiazolo[4,5-h]quinazolin-8-yl)-(3-nitro-phenyl)-amine] — 24-fold lower, 50 ± 40 nM
- Cc1nc2c(s1)-c1nc(Nc3ccccc3)ncc1CC2 [Cpd 11, (2-Methyl-4,5-dihydro-thiazolo[4,5-h]quinazolin-8-yl)-phenyl-amine] — 1200-fold lower, 1 ± 1 nM
- Nc1nc2c(s1)-c1nc(Nc3ccccc3)ncc1CC2 [Cpd 13, N^8-Phenyl-4,5-dihydro-thiazolo[4,5-h]quinazoline-2,8-diamine] — 1700-fold lower, 0.7 nM
- Cc1nc2ccc3cnc(N(C)c4cccc([N+](=O)[O-])c4)nc3c2s1 [Cpd 10, Methyl-(2-methyl-thiazolo[4,5-h]quinazolin-8-yl)-(3-nitro-phenyl)-amine] — 2.7-fold higher, 3200 ± 800 nM

biological target: Cyclin D1 - CDK4 (Homo sapiens, UniProt P11802); test: Cyclin D1 - CDK4 kinase inhibition assay; type: biochemical; details: [ATP] = 100 μM
Sequence (P11802 whole entry): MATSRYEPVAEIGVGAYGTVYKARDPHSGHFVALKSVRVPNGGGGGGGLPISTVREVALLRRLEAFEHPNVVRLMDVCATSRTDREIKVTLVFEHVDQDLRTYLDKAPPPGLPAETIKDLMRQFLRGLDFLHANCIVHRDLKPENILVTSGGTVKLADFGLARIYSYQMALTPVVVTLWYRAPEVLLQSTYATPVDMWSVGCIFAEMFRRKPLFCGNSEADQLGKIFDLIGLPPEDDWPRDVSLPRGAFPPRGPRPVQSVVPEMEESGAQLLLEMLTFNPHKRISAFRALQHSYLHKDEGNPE
Sequence (P24385 whole entry partner): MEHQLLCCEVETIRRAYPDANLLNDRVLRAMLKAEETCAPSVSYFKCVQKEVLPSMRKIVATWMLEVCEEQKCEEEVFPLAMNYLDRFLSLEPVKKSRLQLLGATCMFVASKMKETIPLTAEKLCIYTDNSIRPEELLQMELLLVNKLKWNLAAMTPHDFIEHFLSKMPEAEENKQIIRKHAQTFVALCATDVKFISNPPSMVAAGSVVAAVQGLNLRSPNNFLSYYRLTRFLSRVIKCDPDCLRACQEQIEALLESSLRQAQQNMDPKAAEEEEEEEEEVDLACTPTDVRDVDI
Protocol: as §1

Point of comparison: `Cc1nc2c(s1)-c1nc(Nc3ccc(N(C)C)cc3)ncc1CC2` [Cpd 6, N,N-Dimethyl-N′-(2-methyl-4,5-dihydro-thiazolo[4,5-h]quinazolin-8-yl)-benzene-1,4-diamine], IC50 70 ± 20 nM. Against it:
- Cc1nc2c(s1)-c1nc(N(C)c3cccc([N+](=O)[O-])c3)ncc1CC2 [Cpd 9, Methyl-(2-methyl-4,5-dihydro-thiazolo[4,5-h]quinazolin-8-yl)-(3-nitro-phenyl)-amine] — higher, > 80000 nM
- Cc1nc2c(s1)-c1nc(Nc3ccc(C(F)(F)F)cc3)ncc1CC2 [Cpd 2, (2-Methyl-4,5-dihydro-thiazolo[4,5-h]quinazolin-8-yl)-(4-trifluoromethyl-phenyl)-amine] — 130-fold higher, 9200 ± 1300 nM
- Cc1nc2c(s1)-c1nc(Nc3cccc([N+](=O)[O-])c3)ncc1CC2 [Cpd 1, (2-Methyl-4,5-dihydro-thiazolo[4,5-h]quinazolin-8-yl)-(3-nitro-phenyl)-amine] — 54-fold higher, 3800 ± 600 nM
- Cc1nc2c(s1)-c1nc(Nc3ccccc3)ncc1CC2 [Cpd 11, (2-Methyl-4,5-dihydro-thiazolo[4,5-h]quinazolin-8-yl)-phenyl-amine] — 24-fold higher, 1680 ± 40 nM
- Nc1nc2c(s1)-c1nc(Nc3ccccc3)ncc1CC2 [Cpd 13, N^8-Phenyl-4,5-dihydro-thiazolo[4,5-h]quinazoline-2,8-diamine] — 8.7-fold higher, 610 ± 90 nM
- Cc1nc2ccc3cnc(N(C)c4cccc([N+](=O)[O-])c4)nc3c2s1 [Cpd 10, Methyl-(2-methyl-thiazolo[4,5-h]quinazolin-8-yl)-(3-nitro-phenyl)-amine] — higher, > 40000 nM

biological target: Cyclin H - CDK7 (Homo sapiens, UniProt P50613); test: Cyclin H - CDK7 kinase inhibition assay; type: biochemical; details: [ATP] = 100 μM
Sequence (P50613 whole entry): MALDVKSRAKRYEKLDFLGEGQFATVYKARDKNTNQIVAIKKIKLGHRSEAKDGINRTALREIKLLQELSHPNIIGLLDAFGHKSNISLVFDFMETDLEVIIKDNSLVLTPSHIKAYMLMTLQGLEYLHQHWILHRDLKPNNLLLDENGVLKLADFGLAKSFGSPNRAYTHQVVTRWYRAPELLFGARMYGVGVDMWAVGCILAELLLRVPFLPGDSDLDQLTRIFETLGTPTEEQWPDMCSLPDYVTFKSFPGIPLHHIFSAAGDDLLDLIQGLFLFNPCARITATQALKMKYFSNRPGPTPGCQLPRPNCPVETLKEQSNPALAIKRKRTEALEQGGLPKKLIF
Sequence (P51946 whole entry partner): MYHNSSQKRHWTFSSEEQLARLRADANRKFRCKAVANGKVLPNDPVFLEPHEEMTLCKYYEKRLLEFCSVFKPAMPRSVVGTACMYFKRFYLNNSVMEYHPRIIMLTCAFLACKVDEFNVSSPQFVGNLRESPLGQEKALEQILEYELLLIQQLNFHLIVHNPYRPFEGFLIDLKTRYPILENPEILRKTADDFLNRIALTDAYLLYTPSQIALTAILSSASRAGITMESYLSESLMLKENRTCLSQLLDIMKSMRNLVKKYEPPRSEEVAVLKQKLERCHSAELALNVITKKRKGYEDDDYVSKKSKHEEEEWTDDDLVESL
Protocol: as §1

Point of comparison: `Cc1nc2c(s1)-c1nc(Nc3cccc([N+](=O)[O-])c3)ncc1CC2` [Cpd 1, (2-Methyl-4,5-dihydro-thiazolo[4,5-h]quinazolin-8-yl)-(3-nitro-phenyl)-amine], IC50 1.7 ± 0.5 µM. Against it:
- Cc1nc2c(s1)-c1nc(N(C)c3cccc([N+](=O)[O-])c3)ncc1CC2 [Cpd 9, Methyl-(2-methyl-4,5-dihydro-thiazolo[4,5-h]quinazolin-8-yl)-(3-nitro-phenyl)-amine] — 2.3-fold higher, 3.9 ± 1.4 µM
- Cc1nc2c(s1)-c1nc(Nc3ccc(N(C)C)cc3)ncc1CC2 [Cpd 6, N,N-Dimethyl-N′-(2-methyl-4,5-dihydro-thiazolo[4,5-h]quinazolin-8-yl)-benzene-1,4-diamine] — 13-fold lower, 0.13 ± 0.03 µM
- Cc1nc2c(s1)-c1nc(Nc3ccc(C(F)(F)F)cc3)ncc1CC2 [Cpd 2, (2-Methyl-4,5-dihydro-thiazolo[4,5-h]quinazolin-8-yl)-(4-trifluoromethyl-phenyl)-amine] — higher, > 100 µM
- Cc1nc2c(s1)-c1nc(Nc3ccccc3)ncc1CC2 [Cpd 11, (2-Methyl-4,5-dihydro-thiazolo[4,5-h]quinazolin-8-yl)-phenyl-amine] — higher, > 20 µM
- Nc1nc2c(s1)-c1nc(Nc3ccccc3)ncc1CC2 [Cpd 13, N^8-Phenyl-4,5-dihydro-thiazolo[4,5-h]quinazoline-2,8-diamine] — within error, 2.5 ± 1 µM
- Cc1nc2ccc3cnc(N(C)c4cccc([N+](=O)[O-])c4)nc3c2s1 [Cpd 10, Methyl-(2-methyl-thiazolo[4,5-h]quinazolin-8-yl)-(3-nitro-phenyl)-amine] — 26-fold higher, 44 ± 11 µM

biological target: Cyclin T - CDK9 (Homo sapiens, UniProt P50750); test: Cyclin T - CDK9 kinase inhibition assay; type: biochemical; details: [ATP] = 100 μM
Sequence (P50750 whole entry): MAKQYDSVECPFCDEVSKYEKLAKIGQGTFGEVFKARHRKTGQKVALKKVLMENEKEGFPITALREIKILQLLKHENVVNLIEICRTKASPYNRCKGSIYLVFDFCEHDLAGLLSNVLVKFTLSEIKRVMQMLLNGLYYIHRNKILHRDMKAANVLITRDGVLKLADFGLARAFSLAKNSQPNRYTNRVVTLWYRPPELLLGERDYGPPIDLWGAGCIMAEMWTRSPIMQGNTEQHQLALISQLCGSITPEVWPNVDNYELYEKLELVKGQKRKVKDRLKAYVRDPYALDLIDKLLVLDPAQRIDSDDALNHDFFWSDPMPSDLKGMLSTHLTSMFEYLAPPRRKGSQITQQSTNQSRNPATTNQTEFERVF
Sequence (O60563 whole entry partner): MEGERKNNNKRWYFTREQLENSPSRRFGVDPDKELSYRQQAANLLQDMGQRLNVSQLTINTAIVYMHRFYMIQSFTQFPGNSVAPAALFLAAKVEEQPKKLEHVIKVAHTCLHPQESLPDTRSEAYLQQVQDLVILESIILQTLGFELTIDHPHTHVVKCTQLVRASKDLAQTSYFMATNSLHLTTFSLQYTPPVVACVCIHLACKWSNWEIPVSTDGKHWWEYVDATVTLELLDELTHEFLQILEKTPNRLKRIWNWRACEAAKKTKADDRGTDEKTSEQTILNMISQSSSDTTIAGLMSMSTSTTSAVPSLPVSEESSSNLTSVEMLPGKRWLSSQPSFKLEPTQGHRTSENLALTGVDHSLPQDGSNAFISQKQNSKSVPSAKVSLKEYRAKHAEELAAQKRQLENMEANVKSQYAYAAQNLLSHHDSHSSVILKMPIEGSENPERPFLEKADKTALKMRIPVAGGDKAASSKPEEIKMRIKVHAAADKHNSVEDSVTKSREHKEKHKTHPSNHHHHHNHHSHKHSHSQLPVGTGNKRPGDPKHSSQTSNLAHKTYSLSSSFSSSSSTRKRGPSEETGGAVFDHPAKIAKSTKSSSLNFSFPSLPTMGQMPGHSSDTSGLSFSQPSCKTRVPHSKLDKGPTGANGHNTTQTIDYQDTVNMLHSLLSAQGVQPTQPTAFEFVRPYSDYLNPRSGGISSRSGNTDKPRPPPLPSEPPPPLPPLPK
Protocol: as §1

Point of comparison: `Nc1nc2c(s1)-c1nc(Nc3ccccc3)ncc1CC2` [Cpd 13, N^8-Phenyl-4,5-dihydro-thiazolo[4,5-h]quinazoline-2,8-diamine], IC50 360 ± 140 nM. Against it:
- Cc1nc2c(s1)-c1nc(N(C)c3cccc([N+](=O)[O-])c3)ncc1CC2 [Cpd 9, Methyl-(2-methyl-4,5-dihydro-thiazolo[4,5-h]quinazolin-8-yl)-(3-nitro-phenyl)-amine] — 110-fold higher, 39000 ± 19000 nM
- Cc1nc2c(s1)-c1nc(Nc3ccc(N(C)C)cc3)ncc1CC2 [Cpd 6, N,N-Dimethyl-N′-(2-methyl-4,5-dihydro-thiazolo[4,5-h]quinazolin-8-yl)-benzene-1,4-diamine] — 5.8-fold higher, 2100 ± 700 nM
- Cc1nc2c(s1)-c1nc(Nc3ccc(C(F)(F)F)cc3)ncc1CC2 [Cpd 2, (2-Methyl-4,5-dihydro-thiazolo[4,5-h]quinazolin-8-yl)-(4-trifluoromethyl-phenyl)-amine] — 17-fold higher, 6100 nM
- Cc1nc2c(s1)-c1nc(Nc3cccc([N+](=O)[O-])c3)ncc1CC2 [Cpd 1, (2-Methyl-4,5-dihydro-thiazolo[4,5-h]quinazolin-8-yl)-(3-nitro-phenyl)-amine] — 45-fold lower, 8 nM
- Cc1nc2ccc3cnc(N(C)c4cccc([N+](=O)[O-])c4)nc3c2s1 [Cpd 10, Methyl-(2-methyl-thiazolo[4,5-h]quinazolin-8-yl)-(3-nitro-phenyl)-amine] — higher, > 100000 nM

tested on: A549; test: 72-h MTT cytotoxicity assay, A549; type: cell-based; details: A549 human tumour cell line
Protocol: as §1

Point of comparison: `Cc1nc2c(s1)-c1nc(Nc3ccc(C(F)(F)F)cc3)ncc1CC2` [Cpd 2, (2-Methyl-4,5-dihydro-thiazolo[4,5-h]quinazolin-8-yl)-(4-trifluoromethyl-phenyl)-amine], IC50 2.8 ± 1 µM. Against it:
- Cc1nc2c(s1)-c1nc(N(C)c3cccc([N+](=O)[O-])c3)ncc1CC2 [Cpd 9, Methyl-(2-methyl-4,5-dihydro-thiazolo[4,5-h]quinazolin-8-yl)-(3-nitro-phenyl)-amine] — higher, > 20 µM
- Cc1nc2c(s1)-c1nc(Nc3ccc(N(C)C)cc3)ncc1CC2 [Cpd 6, N,N-Dimethyl-N′-(2-methyl-4,5-dihydro-thiazolo[4,5-h]quinazolin-8-yl)-benzene-1,4-diamine] — 2.9-fold higher, 8 ± 4 µM
- Cc1nc2c(s1)-c1nc(Nc3cccc([N+](=O)[O-])c3)ncc1CC2 [Cpd 1, (2-Methyl-4,5-dihydro-thiazolo[4,5-h]quinazolin-8-yl)-(3-nitro-phenyl)-amine] — 4.1-fold lower, 0.68 µM
- Cc1nc2ccc3cnc(N(C)c4cccc([N+](=O)[O-])c4)nc3c2s1 [Cpd 10, Methyl-(2-methyl-thiazolo[4,5-h]quinazolin-8-yl)-(3-nitro-phenyl)-amine] — higher, > 40 µM

tested on: HT29; test: 72-h MTT cytotoxicity assay, HT29; type: cell-based; details: HT-29, HT29 human tumour cell line
Protocol: as §1

Point of comparison: `Cc1nc2c(s1)-c1nc(Nc3ccc(C(F)(F)F)cc3)ncc1CC2` [Cpd 2, (2-Methyl-4,5-dihydro-thiazolo[4,5-h]quinazolin-8-yl)-(4-trifluoromethyl-phenyl)-amine], IC50 7.1 ± 1.3 µM. Against it:
- Cc1nc2c(s1)-c1nc(N(C)c3cccc([N+](=O)[O-])c3)ncc1CC2 [Cpd 9, Methyl-(2-methyl-4,5-dihydro-thiazolo[4,5-h]quinazolin-8-yl)-(3-nitro-phenyl)-amine] — higher, > 20 µM
- Cc1nc2c(s1)-c1nc(Nc3ccc(N(C)C)cc3)ncc1CC2 [Cpd 6, N,N-Dimethyl-N′-(2-methyl-4,5-dihydro-thiazolo[4,5-h]quinazolin-8-yl)-benzene-1,4-diamine] — 2-fold lower, 3.6 ± 1 µM
- Cc1nc2c(s1)-c1nc(Nc3cccc([N+](=O)[O-])c3)ncc1CC2 [Cpd 1, (2-Methyl-4,5-dihydro-thiazolo[4,5-h]quinazolin-8-yl)-(3-nitro-phenyl)-amine] — 5.1-fold lower, 1.4 ± 0.3 µM
- Cc1nc2ccc3cnc(N(C)c4cccc([N+](=O)[O-])c4)nc3c2s1 [Cpd 10, Methyl-(2-methyl-thiazolo[4,5-h]quinazolin-8-yl)-(3-nitro-phenyl)-amine] — higher, > 40 µM

tested on: Saos-2; test: 72-h MTT cytotoxicity assay, Saos-2; type: cell-based; details: Saos-2 human tumour cell line
Protocol: as §1

Point of comparison: `Cc1nc2c(s1)-c1nc(Nc3ccc(N(C)C)cc3)ncc1CC2` [Cpd 6, N,N-Dimethyl-N′-(2-methyl-4,5-dihydro-thiazolo[4,5-h]quinazolin-8-yl)-benzene-1,4-diamine], IC50 5.3 ± 1.9 µM. Against it:
- Cc1nc2c(s1)-c1nc(N(C)c3cccc([N+](=O)[O-])c3)ncc1CC2 [Cpd 9, Methyl-(2-methyl-4,5-dihydro-thiazolo[4,5-h]quinazolin-8-yl)-(3-nitro-phenyl)-amine] — higher, > 20 µM
- Cc1nc2c(s1)-c1nc(Nc3ccc(C(F)(F)F)cc3)ncc1CC2 [Cpd 2, (2-Methyl-4,5-dihydro-thiazolo[4,5-h]quinazolin-8-yl)-(4-trifluoromethyl-phenyl)-amine] — within error, 4.4 ± 1.8 µM
- Cc1nc2c(s1)-c1nc(Nc3cccc([N+](=O)[O-])c3)ncc1CC2 [Cpd 1, (2-Methyl-4,5-dihydro-thiazolo[4,5-h]quinazolin-8-yl)-(3-nitro-phenyl)-amine] — 4.4-fold lower, 1.2 ± 0.7 µM
- Cc1nc2ccc3cnc(N(C)c4cccc([N+](=O)[O-])c4)nc3c2s1 [Cpd 10, Methyl-(2-methyl-thiazolo[4,5-h]quinazolin-8-yl)-(3-nitro-phenyl)-amine] — higher, > 40 µM
